For test [1], the system named is osteoblasts cultured on sterile bovine bone slices. Kind of test: Mineralisation by osteoblasts cultured on bovine bone slices, Alizarin red staining. Format: cell-based, Balb/c mouse. To be noted: 15 days, FIGS. 14 and 15. As for the experimental part:
(§1) Neonatal mouse calvarial cell cultures are prepared as described previously (Endocrinology 139:4743) using slight modification. Briefly, for primary osteoblast cell cultures, frontal and parietal bones from Balb/c mouse neonates (1-3 day old) are digested in 0.1% collagenase/0.1% dispase in α-MEM to obtain 5 sequential digests. The second through fifth digests are combined and grown to confluence at 37° C. and 5% CO2 in air in α-MEM, supplemented with 10% fetal bovine serum (FBS), 2 mM glutamine, 100 U/ml penicillin-streptomycin, Non-essential amino acid solution and sodium pyruvate. The effect of test agents is analysed using the following tests:
(§2) Cells are seeded onto sterile bovine bone slices in 96-well plate and treated with the culture medium containing α-MEM, supplemented with 10% fetal bovine serum, 2 mM glutamine, 100 U/ml penicillin-streptomycin, non-essential amino acid solution, sodium pyruvate, 10 mM P-glycerophosphate and 50 μg/ml ascorbic acid. Culture medium is changed every alternate day. At termination of the culture, cells are washed twice with PBS, fixed in cold 70% ethanol for 1 h and washed once with water and stained with 40 mM Alizarin red (pH 4.7) for 30 min and then washed in PBS to remove excess staining.
as §2, with “In case of osteoblasts” for “Cells are”, “slices, the cells are cultured” for “slices”, “in A-MEM” for “and treated with the culture medium containing α-MEM,”, “p-glycerophosphate” for “P-glycerophosphate”, “acid in the absence or presence of test compounds or their mixtures.” for “acid.”, “culture after 15 days,” for “culture,”

Test [2] deals with osteoblasts. The test is described as follows: Osteogenic activity of isolated compounds based on alkaline phosphatase expression, MTT and mineralisation in vitro. Format: cell-based. The source says: K051, K052, K054, K080, K082 (isolated from n-butanol soluble fraction) and K095 (isolated from chloroform soluble fraction) (FIGS. 11-15; Tables 10-11).
For a further test, the system named is osteoblast cells. The test is described as follows: Quantification of mineralization in osteoblasts (Alizarin red, acetic acid extraction). Format: cell-based, Balb/c mouse. To be noted: osteoblasts cultured 7 days; vs vehicle control; FIG. 13. The procedure: as §1
For quantification of mineralization which is measured with increased deposition of nascent calcium in osteoblast cells, cells were cultured in the presence of test compounds for 7 days and stained with Alizarin red. Alizarin red was extracted with acetic acid and the intensity of stain, which is directly proportion to the extent of mineralisation, is read at 405 nm.

The subject of a further test is primary osteoblasts. Kind of test: MTT assay for cell proliferation, primary osteoblast cell culture. It counts as cell-based, Balb/c mouse. Conditions: 24 h; for Osteoblast cell proliferation (MTT assay): Vehicle 0.60 ± 0.06, Mean±SEM. As for the experimental part: as §1
MTT assay is a common assay used for assessing cell proliferation where tetrazolium salt is reduced to formazone crystals by the mitochondrial dehydrogenase enzyme, which are then dissolved in DMSO. More the number of metabolically active cells more will be the formazone crystals formed. Briefly, osteoblast cells are maintained in α-MEM medium supplemented with 10% FCS and 1% antibiotic solution in 96 well plate. When the cells attain 40% confluency, they are treated in presence or absence of test agents in 2% FCS supplemented media for 24 h. Twenty-four hours thereafter, MTT salt is added to the cells. After 4 h, the formazone crystals formed are dissolved in DMSO and readings taken at wavelength of 570 nm.
This assay is based on the ability of viable cells to reduce tetrazolium salt to form formazone crystals by mitochondrial dehydrogenase enzyme. In MTT assay, osteoblasts are maintained in α-MEM medium supplemented with 10% FCS and 1% antibiotic solution in 96 well plate. When the cells attain 40% confluency, they are treated in presence or absence of test agents in 2% FCS supplemented media for 24 h. Twenty-four hours thereafter, MTT salt is added to the cells. After 4 h, the formazone crystals formed due to reduction of tetrazolium salt by mitochondrial dehydrogenase enzyme are dissolved in DMSO and readings taken at wavelength of 570 nm. All the five pure compounds nos.
(In general: Formazan colour is commonly taken as a measure of viable cells.)

Test [3] has as its system Cladosporium cladosporioides. Conditions: Bandara et al. 1989/1990; cited from earlier work.
Test [4] deals with osteoblasts. The test is described as follows: Quantification of alkaline phosphatase activity in osteoblasts. It counts as cell-based, Balb/c mouse. Also noted: alkaline phosphatase activity: unit not given here. Conditions: 48 h; for alkaline phosphatase activity: Control 1.87 ± 0.20, Mean±SEM. The procedure:
as §1
p-Nitrophenol phosphate is a colorless substrate which is hydrolysed to colored p-nitrophenol by alkaline phosphatase enzyme. Rate of hydrolysis of p-nitrophenol phosphate is proportional to enzyme present in sample. […] Findings reveal that all the five pure compounds nos.

Test [5] has as its system MCF-7 (human cancer breast) cell line. The test is described as follows: MTT proliferation assay in MCF-7 cell line. It counts as cell-based. To be noted: 10 nM and 1 μM; MCF-7 cells; FIG. 2.
In test [6] the test system is Ishikawa (human uterine glandular epithelial carcinoma) cell line. The test is described as follows: MTT proliferation assay in Ishikawa cell line. It counts as cell-based. To be noted: 10 nM and 1 μM; Ishikawa cells; FIG. 2.
Test [7] deals with PTH-induced resorption of ^45Ca from chick fetal bones in culture. Kind of test: Chick fetal bone culture assay, bone antiresorbing activity. It counts as cell-based. Conditions: 100 μM; vehicle 1.03; T/C close to unity = no antiresorbing activity. As for the experimental part:
A slight modification of the method of Raisz (Nature 197: 1015-1016, 1963) was employed. Femur bones are isolated from chick embryos on day 11 post-ovulation and cleared of adhering connective tissue by carefully rotating each bone on dry Whatman (I) filter paper under stereomicroscope. Each femur bone is then placed in a drop of PBS before culturing in BGJb medium (pH 7.3) supplemented with penicillin (0.075 mg/ml), streptomycin (0.05 mg/ml), HEPES (2.382 mg/ml) and BSA (1 mg/ml), transferred to BGJb culture medium containing ^45CaCl2 (0.5 μCi/300 μl culture medium) and incubated for 2 h at 37° C. under 5% CO2 in air. Labeled femur bones are then washed with BGJb medium for 24 h at 37° C. under 5% CO2 in air. An aliquot of the medium was withdrawn for the measurement of ^45Ca released into the medium from bone during the first 24 h. […] Radioactivity due to ^45Ca in the spent medium collected at 24, 48 and 96 h of culture and HCl extract at 96 h of culture is quantified by Liquid Scintillation Spectrophotometer in 10 ml of the scintillation fluid (ACS II scintillation cocktail, Amersham Biosciences, UK). […] Bone anti-resorbing activity is expressed as percentage of ^45Ca released into the culture medium and the effect of the agent of invention as percent of the corresponding contra-lateral control or T/C ratio as shown below. […]

A further test deals with rat fetal bones. Kind of test: Total alkaline phosphatase activity in cultured rat fetal bones. It counts as cell-based. Also noted: dose or concentration left out as unconfirmed. Conditions: rat fetal bones cultured for 48 h. The procedure:
[…] The homogenate is centrifuged at 5000 rpm for 10 min at 4° C. The supernatant is used as the enzyme solution. The activity of alkaline phosphatase is measured using ALP kit (Roche, Germany) and p-nitrophenol phosphate as substrate.

Molecules are shown by their SMILES.

As for `COc1ccc2c(c1)OC1c3ccc(O)cc3OCC21` (stereo not shown) [Compound K095, 3-hydroxy-9-methoxypterocarpans], in test [1], the “relative potency in mineralisation on bovine bone slices” value is “most potent”. Further, the “intensity of alizarin red staining (rate of new bone formation)” value in [1] (osteoblasts on bovine bone slices, alone or in combination) is recorded as “increased intensity of alizarin red staining”. Also, in the test on osteoblasts [2], the osteogenic activity result is listed as “promising osteogenic activity”. Also, in the test on osteoblast cells, the “mineralisation quantified by alizarin extraction method” value is listed as “enhanced mineralisation”. Further, the “Osteoblast cell proliferation (MTT assay)” value with primary osteoblasts (10^−5 M) was determined as 1.28 ± 0.08; in the test with primary osteoblasts (10^−6 M), 1.47 ± 0.14; in the test on primary osteoblasts (10^−7 M), 1.35 ± 0.16; in the test on primary osteoblasts (10^−8 M), 1.24 ± 0.18; in the test on primary osteoblasts (10^−9 M), 1.14 ± 0.19; in the test on primary osteoblasts (10^−10 M), 1.38 ± 0.18. The “Osteoblast cell proliferation (MTT assay)” value with primary osteoblasts (10^−11 M) turned out to be 1.05 ± 0.03. The “osteoblast cell proliferation vs vehicle control” value in the test with primary osteoblasts (10^−11 M to 10^−5 M) is reported as “enhanced osteoblast cell proliferation”. Moreover, the “activity against Cladosporium cladosporioides” value in [3] was “active”. The alkaline phosphatase activity in the test with osteoblasts [4] (10^−5 M) is on record as 3.28 ± 0.07; in the test on osteoblasts [4] (10^−6 M), 3.42 ± 0.07; in the test with osteoblasts [4] (10^−7 M), 3.50 ± 0.07; with osteoblasts [4] (10^−8 M), 3.35 ± 0.10; with osteoblasts [4] (10^−9 M), 3.54 ± 0.04; with osteoblasts [4] (10^−10 M) it was 3.40 ± 0.07. In addition, the alkaline phosphatase activity in the test on osteoblasts [4] (10^−11 M) was 3.51 ± 0.01. In addition, in the test on osteoblasts [4] (10^−11 M to 10^−5 M), the “expression of alkaline phosphatase vs vehicle control” value is reported as “increased expression of alkaline phosphatase”.

`C[C@]12CC[C@@H]3c4ccc(O)cc4CC[C@H]3[C@@H]1CC[C@@H]2O` [Estradiol-17β]: the proliferation result in [5] and in test [6] was “marked increase in proliferation” throughout. Further, the “T/C ratio (PTH-induced resorption of ^45Ca)” value in test [7] was found to be 0.37.

Consider `O=C(c1ccc(OCCN2CCCCC2)cc1)c1c(-c2ccc(O)cc2)sc2cc(O)ccc12` [Raloxifene], for which the proliferation result is recorded as “increased proliferation was observed in only the Ishikawa cell line” in test [5] and “increased proliferation was observed” in [6].

On to `O=P([O-])([O-])OC(CO)CO.[Na+].[Na+]` [Sodium β-glycerophosphate], for which the “Total alkaline phosphatase activity, percent increase (percent of vehicle control group)” value in the test on rat fetal bones and in the test on rat fetal bones (listed as sodium p-glycerophosphate) was 28% throughout.

The record behind these values is patent US20090221690A1, “Pharmaceutical Composition for the Prevention/Treatment of Bone Disorders and a Process for the Preparation Thereof” (COUNCIL OF SCIENTIFIC AND INDUSTRIAL RESEARCH, priority 2006, published 2009).
